From patent US20090226901A1, “Method of evaluating or selecting agents for preventing or improving pigmented spots” (Kao Corporation, priority 2008, published 2009)
Each block holds one compound with its values, some of them ahead of it.

Columns and labels:
SCF (KITLG) gene [1] = assay: SCF (KITLG) gene expression in cultured human epidermal keratinocytes, quantitative PCR; type: cell-based; details: cultured epidermal cells
Method: (§1) Human epidermal cells derived from neonatal foreskin were purchased from Kurabo Industries Ltd., and were precultured in a serum-free basal growth medium (EpiLife, product of Kurabo Industries Ltd.) in an atmosphere of 5% (v/v) CO2 at 37° C. The thus-precultured epidermal cells were inoculated into a 6-well culture plate (product of Falcon) (1.0×10^5 cells/well). Twenty-four hours thereafter, the cells were cultured in a growth medium without including BPE (bovine pituitary gland extract) and hEGF (human epidermal growth factor), and 24 hours thereafter, 5-fluorouracil (5-FU, product of Calbiochem), which is a conventionally known p53 activator, was added at a concentration of 1 or 10 μg/mL. After 48-hour treatment, total RNA was extracted by use of TRIzol® Reagent (product of Invitrogen Corporation). Specifically, each well of the culture plate was washed with PBS, and TRIzol® Reagent (1 mL) was added to the well. […]
(§2) The thus-extracted total RNA was subjected to reverse transcription to synthesize cDNA, and the thus-synthesized cDNA was employed for gene expression analysis through quantitative PCR using TaqMan® probe. In the present Example, specifically, expression levels of SCF (KITLG) gene (Assay ID: Hs00241497_m1) and endothelin-1 gene (Assay ID: Hs00174961_m1) were measured. […]

endothelin-1 gene [2] = assay: endothelin-1 gene expression in cultured human epidermal keratinocytes, quantitative PCR; type: cell-based; details: cultured epidermal cells
Method: as §1, §2

HCT116 cells = details: HCT116 human colon cancer cell line; Cell, 124, 207-219, 2006; cited from earlier work
tyrosinase gene = tyrosinase gene expression in organ-cultured skin tissue of pigmentatio petaloides actinica, RT-PCR; type: cell-based, human; details: 10 μM PFT, 72 hours organ culture, epidermis, relative to control spot sample, FIG. 6
From the text: (§3) Through a contract laboratory of Stephens & Associates (Carrollton, Tex.), subjects having spots were recruited. A dermatologist, contractor of the laboratory, collected samples of skin tissue with pigmentatio petaloides actinica from the shoulder (at two sites for each subject) in two subjects at with a biopsy trepan (diameter: 4 mm). Thereafter, the thus-collected skin biopsy samples were immersed in Dulbecco's modified Eagle's medium (DMEM), and transported to the Cincinnati branch of Biological Science Americas Laboratories while being maintained at about 4 to 10° C. […]
(§4) Thereafter, total RNA was extracted by use of RNeasy micro kit (Qiagen), and cDNA was synthesized through a customary method by means of ThermoScript RT-PCR Systems (Invitrogen, Carlsbad, Calif.). Probes specific to tyrosinase mRNA, SCF (KITLG) mRNA, and endothelin-1 mRNA were obtained from TaqMan® Gene Expression Assays (Applied Biosystems) (Assay IDs: Hs00165976_m1, Hs00241497_m1, and Hs00174961_ml), and real-time quantitative RT-PCR was carried out by means of ABI PRISM 7300 sequence detection system (Applied Biosystems). […] The expression level of each gene in the PFT-treated spot sample was calculated relative to that of the gene in a control spot sample (taken as 1).

[3] = test system: three-dimensional cultured skin model (MEL-300A); assay: melanin content of three-dimensional cultured skin model (MEL-300A); type: cell-based, human; details: culturing for 14 days, absorbance at 405 nm, relative to control (100%), FIG. 5
Method: A three-dimensional cultured skin model (MEL-300A) was purchased from Kurabo Industries Ltd. Immediately after the product had been obtained, a tissue cup was transferred into a 6-well culture plate (product of Falcon), and cultured overnight in a long-term maintenance medium (EPI-100-NMM-113, product of Kurabo Industries Ltd.) (1 mL), in an atmosphere of […] at 37° C. Subsequently, pifithrin-α (PFT), which is a conventionally known p53 inhibitor, was added, followed by culturing for 14 days. Culturing was carried out by allowing the tissue cup to stand still on a sterilized stainless steel washer (product of Kurabo Industries Ltd.) and by use of a long-term maintenance medium (5 mL). Medium was exchanged every three days. After culturing, skin tissue was removed from the tissue cup with tweezers, and then washed thrice with PBS, once with 5% (v/v) trichloroacetic acid, and once with a mixture of diethyl ether and ethanol (1:3 by volume). Thereafter, the thus-washed skin tissue was incubated at 50° C. for two hours, to thereby dry the tissue. Subsequently, the tissue was dissolved in 2N aqueous sodium hydroxide solution (2N) (200 μL), followed by centrifugation at 15,000 rpm for 15 minutes. Thereafter, the culture supernatant was recovered, and absorbance was measured at 405 nm, to thereby calculate the melanin content in the tissue.

SCF (KITLG) gene [4] = assay: SCF (KITLG) gene expression in organ-cultured skin tissue of pigmentatio petaloides actinica, RT-PCR; type: cell-based, human; details: 10 μM PFT, 72 hours organ culture, epidermis, relative to control spot sample, FIG. 6
From the text: as §3, §4

endothelin-1 gene [5] = assay: endothelin-1 gene expression in organ-cultured skin tissue of pigmentatio petaloides actinica, RT-PCR; type: cell-based, human; details: 10 μM PFT, 72 hours organ culture, epidermis, relative to control spot sample, FIG. 6
From the text: as §3, §4

[6] = 5-FU 1 or 10 μg/mL, 48-hour treatment, FIG. 3
[7] = PFT 1 or 10 μM, 24-hours culturing, FIG. 4

SMILES: O=c1[nH]cc(F)c(=O)[nH]1 [5-fluorouracil]
expression of SCF (KITLG) gene (SCF (KITLG) gene [1]; [6]): significantly induced
expression of endothelin-1 gene (endothelin-1 gene [2]; [6]): significantly induced
expression level of SCF (KITLG) gene (HCT116 cells): induced

expression level of tyrosinase gene (tyrosinase gene): significantly decreased
SMILES: Cc1ccc(C(=O)Cn2c3c(sc2=N)CCCC3)cc1 [pifithrin-α]
melanin contents [3]: decreased the melanin contents of the three-dimensional cultured skin model in a dose-dependent manner
expression of SCF (KITLG) gene (SCF (KITLG) gene [1]; [7]): significantly decreased
expression of endothelin-1 gene (endothelin-1 gene [2]; [7]): significantly decreased
expression level of SCF (KITLG) gene (SCF (KITLG) gene [4]): significantly decreased
expression of endothelin-1 gene (endothelin-1 gene [5]): tended to be significantly decreased
